We go through 29 compounds from patent US8742110B2, “Spiroxazolidinone compounds” (Merck Sharp & Dohme Corp., priority 2010, dated 2014).

Where a name gives a salt, the structure may show the parent alone.

Chain of SSTR5 (P35346 whole entry): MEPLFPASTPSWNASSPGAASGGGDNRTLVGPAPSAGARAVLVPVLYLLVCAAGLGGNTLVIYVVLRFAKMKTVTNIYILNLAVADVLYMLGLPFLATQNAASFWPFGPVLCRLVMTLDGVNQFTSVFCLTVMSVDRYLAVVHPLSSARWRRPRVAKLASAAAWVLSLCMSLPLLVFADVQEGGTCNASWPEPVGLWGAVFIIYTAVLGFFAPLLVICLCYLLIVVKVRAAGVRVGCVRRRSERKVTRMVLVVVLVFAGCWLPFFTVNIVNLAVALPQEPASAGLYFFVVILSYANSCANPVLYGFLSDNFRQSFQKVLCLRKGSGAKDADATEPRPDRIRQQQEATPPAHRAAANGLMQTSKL

In the assay the target is SSTR5 (Homo sapiens (Human), UniProt P35346). Kind of assay: SSTR5 binding assay. Particulars: CHO-K1 membranes expressing cloned human SSTR5. In short, it runs like this:
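Competition binding on membranes from CHO-K1 cells stably expressing cloned human receptor, using radiolabeled somatostatin in 50 mM Tris-HCl pH 7.8 with EGTA, MgCl2 and protease inhibitors. Unlabeled compounds tested from 0.01 nM to 10,000 nM.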
By IC50 is commonly meant the concentration at which inhibition is half-maximal. `O=C(O)c1ccc(N2CC3(CCN(Cc4nc(-c5ccccc5)oc4-c4cc(F)c(F)cc4F)CC3)OC2=O)cc1` [Example 6-30, 4-(2-Oxo-8-{[2-phenyl-5-(2,4,5-trifluorophenyl)-1,3-oxazol-4-yl]methyl}-1-oxa-3,8-diazaspiro[4.5]dec-3-yl)benzoic acid, TFA salt] yielded an IC50 of 89.9 nM.

`Cn1cc(-c2ccc(F)c(F)c2F)c(CN2CCC3(CC2)CN(c2ccc(C(=O)O)cc2)C(=O)O3)n1` [Example 2-1, 4-(8-{[1-Methyl-4-(2,3,4-trifluorophenyl)-1H-pyrazol-3-yl]methyl}-2-oxo-1-oxa-3,8-diazaspiro[4.5]dec-3-yl)benzoic acid, TFA salt] displayed an IC50 of 2950 nM.

Turning to `COc1ccc2c(CN3CCC4(CC3)CN(c3ccc(C(=O)O)cc3)C(=O)O4)nn(CC(C)(C)C)c2c1` [Example 6-11, 4-(8-{[1-(2,2-Dimethylpropyl)-6-methoxy-1H-indazol-3-yl]methyl}-2-oxo-1-oxa-3,8-diazaspiro[4.5]dec-3-yl)benzoic acid, TFA salt], the IC50 turned out to be 410 nM.

`COc1ccc(-c2nc(C3CCCCC3)sc2CN2CCC3(CC2)CN(c2ccc(C(=O)O)cc2)C(=O)O3)cc1` [Example 6-28, 4-(8-{[2-Cyclohexyl-4-(4-methoxyphenyl)-1,3-thiazol-5-yl]methyl}-2-oxo-1-oxa-3,8-diazaspiro[4.5]dec-3-yl)benzoic acid, TFA salt] showed an IC50 of 1.34 nM. The value for `CCOc1cc(C)nc2c(OCC)cc(CN3CCC4(CC3)CN(c3ccc(C(=O)O)cc3)C(=O)O4)cc12` [Example 5-4, 4-{8-[(4,8-Diethoxy-2-methylquinolin-6-yl)methyl]-2-oxo-1-oxa-3,8-diazaspiro[4.5]dec-3-yl}benzoic acid, TFA salt] was 65.2 nM; that for `CCOc1cc(CN2CCC3(CC2)CN(c2ccc(C(=O)O)cc2)C(=O)O3)c(-n2cc(C)cn2)cc1C` [Example 4-28, 4-{8-[5-Ethoxy-4-methyl-2-(4-methyl-1H-pyrazol-1-yl)benzyl]-2-oxo-1-oxa-3,8-diazaspiro[4.5]dec-3-yl}benzoic acid, TFA salt] was 0.395 nM.

Consider `CCOc1cc(CN2CCC3(CC2)CN(c2ccc(C(C)(C)C(=O)O)cc2)C(=O)O3)cc(OCC)c1-c1ccc(F)cc1` [Example 3-6, 2-(4-{8-[(2,6-Diethoxy-4′-fluorobiphenyl-4-yl)methyl]-2-oxo-1-oxa-3,8-diazaspiro[4.5]dec-3-yl}phenyl)-2-methylpropanoic acid, TFA salt], for which the IC50 is 9.47 nM. Turning to `CC(C)(C)c1nn(-c2ccc(F)cc2)cc1CN1CCC2(CC1)CN(c1ccc(C(=O)O)cc1)C(=O)O2` [Example 1-35, 4-(8-{[3-tert-Butyl-1-(4-fluorophenyl)-1H-pyrazol-4-yl]methyl}-2-oxo-1-oxa-3,8-diazaspiro[4.5]dec-3-yl)benzoic acid, TFA salt], the half-maximal inhibitory concentration (IC50) came out at 36.2 nM. In turn, `CCOc1ccc(-c2ccc(F)c(F)c2F)c(CN2CCC3(CC2)CN(c2ccc(C(=O)O)cc2)C(=O)O3)c1` [Example 4-5, 4-{8-[(4-Ethoxy-2′,3′,4′-trifluorobiphenyl-2-yl)methyl]-2-oxo-1-oxa-3,8-diazaspiro[4.5]dec-3-yl}benzoic acid, TFA salt] registered an IC50 of 0.556 nM. As for `CCOc1ccc(-c2ccc(F)c(F)c2F)c(CN2CCC3(CC2)CN(c2ccc(C(=O)O)c(C)c2)C(=O)O3)c1` [Example 4-13, 4-{8-[(4-Ethoxy-2′,3′,4′-trifluorobiphenyl-2-yl)methyl]-2-oxo-1-oxa-3,8-diazaspiro[4.5]dec-3-yl}-2-methylbenzoic acid, TFA salt], the figure is 0.983 nM; as for `CC(C)n1nc(CN2CCC3(CC2)CN(c2ccc(C(=O)O)cc2)C(=O)O3)c2cc(OCc3ccccc3)ccc21` [Example 6-14, 4-(8-{[5-(Benzyloxy)-1-(propan-2-yl)-1H-indazol-3-yl]methyl}-2-oxo-1-oxa-3,8-diazaspiro[4.5]dec-3-yl)benzoic acid, TFA salt], 0.26 nM. The value for `O=C(O)c1ccc(N2CC3(CCN(Cc4cn(-c5ccccc5)nc4-c4ccccc4)CC3)OC2=O)cc1` [Example 1-3, 4-{8-[(1,3-Diphenyl-1H-pyrazol-4-yl)methyl]-2-oxo-1-oxa-3,8-diazaspiro[4.5]dec-3-yl}benzoic acid, TFA salt] was 2.81 nM; that for `CCOc1cc(CN2CCC3(CC2)CN(c2ccc(C(=O)O)cc2)C(=O)O3)c(-c2ccc(F)c(F)c2F)cc1C` [Example 4-7, 4-{8-[(4-Ethoxy-2′,3′,4′-trifluoro-5-methylbiphenyl-2-yl)methyl]-2-oxo-1-oxa-3,8-diazaspiro[4.5]dec-3-yl}benzoic acid, TFA salt] was 0.409 nM.

In the case of `Cc1cccn2c(-c3cc(F)c(F)cc3F)c(CN3CCC4(CC3)CN(c3ccc(C(=O)O)cc3)C(=O)O4)nc12` [Example 6-39, 4-(8-{[8-Methyl-3-(2,4,5-trifluorophenyl)imidazo[1,2-a]pyridin-2-yl]methyl}-2-oxo-1-oxa-3,8-diazaspiro[4.5]dec-3-yl)benzoic acid, TFA salt], the IC50 turned out to be 442 nM. As to `CCOc1cc(CN2CCC3(CC2)CN(c2ccc(C(=O)O)cc2)C(=O)O3)c(-c2ccc(F)nc2)cc1C` [Example 4-14, 4-{8-[5-Ethoxy-2-(6-fluoropyridin-3-yl)-4-methylbenzyl]-2-oxo-1-oxa-3,8-diazaspiro[4.5]dec-3-yl}benzoic acid, TFA salt], the IC50 is 0.407 nM. The value for `O=C(O)c1ccc(N2CC3(CCN(Cc4nn(Cc5ccc(Cl)cc5)cc4-c4cc(F)c(F)cc4F)CC3)OC2=O)cc1` [Example 2-4, 4-(8-{[1-(4-Chlorobenzyl)-4-(2,4,5-trifluorophenyl)-1H-pyrazol-3-yl]methyl}-2-oxo-1-oxa-3,8-diazaspiro[4.5]dec-3-yl)benzoic acid, TFA salt] was 112 nM; that for `O=C(O)c1ccc(N2CC3(CCN(Cc4c(Cc5cc(F)c(F)cc5F)nn(-c5ccccc5)c4Cl)CC3)OC2=O)cc1` [Example 1-47, 4-(8-{[5-Chloro-1-phenyl-3-(2,4,5-trifluorobenzyl)-1H-pyrazol-4-yl]methyl}-2-oxo-1-oxa-3,8-diazaspiro[4.5]dec-3-yl)benzoic acid, TFA salt] was 79 nM.

The compound `Cc1cc(CN2CCC3(CC2)CN(c2ccc(C(=O)O)cc2)C(=O)O3)cc2c1OCCC2(C)C` [Example 5-13, 4-{2-Oxo-8-[(4,4,8-trimethyl-3,4-dihydro-2H-chromen-6-yl)methyl]-1-oxa-3,8-diazaspiro[4.5]dec-3-yl}benzoic acid, TFA salt] yielded an IC50 of 0.317 nM. As for `COc1ccc2c(CN3CCC4(CC3)CN(c3ccc(C(=O)O)cc3)C(=O)O4)cn(-c3ccccc3)c2c1` [Example 6-23, 4-{8-[(6-Methoxy-1-phenyl-1H-indol-3-yl)methyl]-2-oxo-1-oxa-3,8-diazaspiro[4.5]dec-3-yl}benzoic acid, TFA salt], the figure is 9.06 nM.

In turn, `COc1cc(CN2CCC3(CC2)CN(c2ccc(C(=O)O)cc2)C(=O)O3)cc2c(OC)cccc12` [Example 5-6, 4-{8-[(4,8-Dimethoxynaphthalen-2-yl)methyl]-2-oxo-1-oxa-3,8-diazaspiro[4.5]dec-3-yl}benzoic acid, TFA salt] returned an IC50 of 0.172 nM. As for `CCOc1cc(CN2CCC3(CC2)CN(c2ccc(C(=O)O)cc2)C(=O)O3)cc2ccc(C(F)(F)F)nc12` [Example 5-9, 4-(8-{[8-Ethoxy-2-(trifluoromethyl)quinolin-6-yl]methyl}-2-oxo-1-oxa-3,8-diazaspiro[4.5]dec-3-yl)benzoic acid, TFA salt], the figure is 11.3 nM; as for `COc1ccc2c(CN3CCC4(CC3)CN(c3ccc(C(=O)O)cc3)C(=O)O4)n[nH]c2c1` [Example 6-2, 4-{8-[(6-Methoxy-1H-indazol-3-yl)methyl]-2-oxo-1-oxa-3,8-diazaspiro[4.5]dec-3-yl}benzoic acid, TFA salt], 1740 nM. As for `O=C(O)c1ccc(N2CC3(CCN(Cc4ccc5c(c4)OCO5)CC3)OC2=O)cc1` [Example 5-17, 4-{8-[(1,3-Benzodioxol-5-yl)methyl]-2-oxo-1-oxa-3,8-diazaspiro[4.5]dec-3-yl}benzoic acid, TFA salt], the figure is 210 nM. Turning to `O=C(O)c1ccc(N2CC3(CCN(Cc4cnc(-c5ccccc5)nc4-c4ccc(F)cc4)CC3)OC2=O)cc1` [Example 4-15, 4-(8-{[4-(4-Fluorophenyl)-2-phenylpyrimidin-5-yl]methyl}-2-oxo-1-oxa-3,8-diazaspiro[4.5]dec-3-yl)benzoic acid, TFA salt], the half-inhibitory concentration (IC50) was determined as 218 nM. As for `CCOc1nn(C(C)(C)C)cc1CN1CCC2(CC1)CN(c1ccc(C(=O)O)cc1)C(=O)O2` [Example 1-36, 4-{8-[(1-tert-Butyl-3-ethoxy-1H-pyrazol-4-yl)methyl]-2-oxo-1-oxa-3,8-diazaspiro[4.5]dec-3-yl}benzoic acid, TFA salt], the IC50 was 509 nM. As for `CC1(C)CCOc2c(F)cc(CN3CCC4(CC3)CN(c3ccc(C(=O)O)cc3)C(=O)O4)cc21` [Example 5-14, 4-{8-[(8-Fluoro-4,4-dimethyl-3,4-dihydro-2H-chromen-6-yl)methyl]-2-oxo-1-oxa-3,8-diazaspiro[4.5]dec-3-yl}benzoic acid, TFA salt], the figure is 3.62 nM. As for `COc1ccc(-c2nn(C3CC3)cc2CN2CCC3(CC2)CN(c2ccc(C(=O)O)cc2)C(=O)O3)cc1` [Example 1-4, 4-(8-{[1-Cyclopropyl-3-(4-methoxyphenyl)-1,1-pyrazol-4-yl]methyl}-2-oxo-1-oxa-3,8-diazaspiro[4.5]dec-3-yl)benzoic acid, TFA salt], the figure is 4.59 nM; as for `CC(C)(C)Cn1cc(CN2CCC3(CC2)CN(c2ccc(C(=O)O)cc2)C(=O)O3)c(-c2ccc(F)c(Cl)c2)n1` [Example 1-38, 4-(8-{[3-(3-Chloro-4-fluorophenyl)-1-(2,2-dimethylpropyl)-1H-pyrazol-4-yl]methyl}-2-oxo-1-oxa-3,8-diazaspiro[4.5]dec-3-yl)benzoic acid, TFA salt], 5.29 nM.

As for `O=C(O)c1ccc(N2CC3(CCN(Cc4nc(-c5ccccc5)oc4-c4ccccc4)CC3)OC2=O)cc1` [Example 6-34, 4-{8-[(2,5-Diphenyl-1,3-oxazol-4-yl)methyl]-2-oxo-1-oxa-3,8-diazaspiro[4.5]dec-3-yl}benzoic acid, TFA salt], the 50% inhibitory concentration (IC50) came out at 86 nM.
